These results are taken from paper PMC6342556 (ACS chemical neuroscience, 2018).

Each structure is given as a SMILES string.

This assay concerns the target serotonin transporter (hSERT) (Homo sapiens, UniProt P31645). The experiment in a line: fluorometric uptake. Format: cell-based.

serotonin transporter (hSERT), sequence (P31645 whole entry): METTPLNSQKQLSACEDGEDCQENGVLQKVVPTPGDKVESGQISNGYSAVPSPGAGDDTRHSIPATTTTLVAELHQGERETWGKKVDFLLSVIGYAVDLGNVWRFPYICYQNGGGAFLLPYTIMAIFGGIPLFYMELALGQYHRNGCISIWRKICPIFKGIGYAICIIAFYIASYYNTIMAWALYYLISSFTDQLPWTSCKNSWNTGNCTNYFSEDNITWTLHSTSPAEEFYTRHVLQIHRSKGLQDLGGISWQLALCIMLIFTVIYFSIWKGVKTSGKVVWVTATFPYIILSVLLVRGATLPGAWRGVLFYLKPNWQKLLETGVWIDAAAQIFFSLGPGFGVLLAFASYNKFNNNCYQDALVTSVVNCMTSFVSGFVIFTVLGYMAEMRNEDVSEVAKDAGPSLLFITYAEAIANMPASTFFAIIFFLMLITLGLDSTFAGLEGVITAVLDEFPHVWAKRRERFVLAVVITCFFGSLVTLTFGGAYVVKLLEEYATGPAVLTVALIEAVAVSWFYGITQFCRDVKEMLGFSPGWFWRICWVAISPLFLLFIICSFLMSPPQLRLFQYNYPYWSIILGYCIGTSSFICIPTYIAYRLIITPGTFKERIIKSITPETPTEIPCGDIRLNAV

Consider `NCCc1ccc2[nH]c3ccccc3c(=O)c2c1` [FFN54], for which the “fluorometric uptake (5 μM) in hSERT-HEK cells with and without imipramine; S/B =” value is given as “FFN54 showed hSERT-dependent cell uptake in a multi-well fluorometric assay using hSERT-transfected human kidney cells”.
